SMILES strings stand for the structures. Calls of active or inactive are those of the source. The rule behind the calls is not given here.

The target in the first test is Transient receptor potential cation channel subfamily V member 1 (Rattus norvegicus) (UniProt O35433). As to the kind of experiment: Agonist activity at TRPV1 in rat dorsal root ganglia neurons by 45Ca2+ uptake assay.
Sequence of Transient receptor potential cation channel subfamily V member 1 (Rattus norvegicus) (O35433 whole entry): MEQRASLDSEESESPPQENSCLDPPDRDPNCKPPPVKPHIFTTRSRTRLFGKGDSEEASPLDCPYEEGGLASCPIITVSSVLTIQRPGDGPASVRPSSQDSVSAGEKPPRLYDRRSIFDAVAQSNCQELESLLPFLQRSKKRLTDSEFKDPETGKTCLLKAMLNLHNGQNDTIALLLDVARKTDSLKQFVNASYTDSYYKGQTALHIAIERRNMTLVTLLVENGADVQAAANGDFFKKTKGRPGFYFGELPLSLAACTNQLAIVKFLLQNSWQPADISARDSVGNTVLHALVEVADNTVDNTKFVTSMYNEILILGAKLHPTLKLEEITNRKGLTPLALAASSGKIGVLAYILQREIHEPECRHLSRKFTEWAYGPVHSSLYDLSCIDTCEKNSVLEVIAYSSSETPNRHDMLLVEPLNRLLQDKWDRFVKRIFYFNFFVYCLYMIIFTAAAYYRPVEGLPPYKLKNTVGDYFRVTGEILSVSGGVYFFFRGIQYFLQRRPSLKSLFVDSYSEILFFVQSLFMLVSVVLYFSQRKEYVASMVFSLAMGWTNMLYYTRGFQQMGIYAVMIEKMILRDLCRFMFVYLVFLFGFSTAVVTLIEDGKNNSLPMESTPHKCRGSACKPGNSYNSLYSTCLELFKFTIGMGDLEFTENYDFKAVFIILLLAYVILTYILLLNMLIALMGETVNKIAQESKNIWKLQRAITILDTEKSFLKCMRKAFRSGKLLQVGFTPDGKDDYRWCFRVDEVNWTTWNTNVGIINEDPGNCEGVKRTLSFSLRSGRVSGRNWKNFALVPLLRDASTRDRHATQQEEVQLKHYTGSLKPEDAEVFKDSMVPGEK
As to `CCOC(=O)[C@H]1[C@H]2COc3ccc(Cl)cc3[C@@H]2N2C(=O)c3ccc(C)cc3NC(=O)[C@@]12C`, the outcome was Active.
For `COc1cc(CNC(=O)CCCC/C=C/C(C)C)ccc1O`, the result was Active.

For the next test the target is unchanged. The experiment in a line: Partial agonist activity at TRPV1 in rat dorsal root ganglia neurons by 45Ca2+ uptake assay.
For `CCOC(=O)[C@@H]1[C@H]2COc3ccc(OC)cc3[C@@H]2N[C@]1(C)C(=O)Nc1cc(C)ccc1C(=O)OC`, the result was Active.
On the same count and under the same terms, the value for `CCOC(=O)[C@@H]1[C@H]2COc3c(F)cccc3[C@@H]2N[C@]1(C)C(=O)Nc1cc(C)ccc1C(=O)OC` was “Active”; that for `CCOC(=O)[C@@H]1[C@H]2COc3ccc(F)cc3[C@@H]2N[C@]1(C)C(=O)Nc1cc(C)ccc1C(=O)OC` was “Active”; that for `CCOC(=O)[C@@H]1[C@H]2COc3ccc(Cl)cc3[C@@H]2N[C@]1(C)C(=O)Nc1cc(C)ccc1C(=O)OC` was “Active”.
